The values below come from patent US20260053942A1, “STING AGONIST IMMUNOSTIMULATORY ANTIBODY DRUG CONJUGATES” (ASTELLAS PHARAMA INC., priority 2024, published 2026).

Assay type in all cases: cell-based, human
Experiment [1] relates to TROP2 positive NCI-H292, NCI-H441 cells and TROP2 negative NCI-H460 and NCI-H1703 cells. Description: Cell proliferation (cell killing) assay, cell line panel. Particulars: all TROP2 positive and negative cell lines tested. The procedure:
(§1) The cytotoxicity of the ADCs, iSACs and iADCs was measured in a cell proliferation assay. TROP2 positive NCI-H292, NCI-H441 cells and TROP2 negative NCI-H460 and NCI-H1703 cells were obtained from ATCC (American Type Culture Collection) and maintained in DMEM/F12 (1:1), high glucose (Corning) supplemented with 10% heat-inactivated fetal bovine serum (Thermo Scientific), 2 mM glutamax (Thermo Scientific), and 1× Penicillin/Streptomycin (Corning).
(§2) Cells were collected and counted by the Vi-CELL Cell Viability Analyzers (Beckman Coulter). A total of 7500 cells in a volume of 50 uL were seeded in each well of a 96-well flat bottom white Polystyrene plate. Test articles were diluted at 2× final concentration in the cell culture medium and 50 uL was added into each treatment well. Assay plates were cultured at 37° C. in a CO2 incubator for 120 hours. For cell viability measurement, 60 μL of Cell Titer-Glo® reagent (Promega Corp. Madison, WI) was added into each well, and plates were processed as per product instructions. Relative luminescence was measured on an ENVISION® plate reader (Perkin-Elmer; Waltham, MA). Relative luminescence readings were converted to % viability using untreated cells as controls. Data was fitted with non-linear regression analysis, using log(inhibitor) vs. response-variable slope, 4 parameter fit equation using GraphPad Prism (GraphPad v 5.00, Software; San Diego, CA).

The test system of a further experiment is NCI-H460 (Trop2-). Description: Cell proliferation (cell killing) assay, Cell Titer-Glo, 120 hours. Particulars: for pEC50: Homo sapiens. As for the experimental part: as §1, §2
The subject of the next experiment is NCI-H441 (Trop2+). Described as above. Particulars: for pEC50: Homo sapiens. The procedure:
as §1, §2

The test system of a further experiment is NCI-H1703 (Trop2-). The description is as above. Particulars: for pEC50: Homo sapiens. As for the experimental part:
as §1, §2

The next experiment concerns NCI-H292 (Trop2+). The description is as above. Particulars: for pEC50: Homo sapiens. As for the experimental part:
as §1, §2

Experiment [2] has as its system NCI-H292 cells. As to the kind of experiment: Immunogenic cell death: HMGB1 release in supernatant (sandwich ELISA), 48 hours. Particulars: for HMGB-1 Release Span: supernatant. The procedure: (§3) Immunogenic cell death elicited by the TROP2 ADC, iSAC, iADCs and exatecan were measured by cell surface translocate of calreticulin and release of HMGB1 in the cell culture supernatant. Briefly, TROP2 positive cell line NCI-H292 were seeded into a 96-well flat bottom plate 4 hours prior to the initialization of the assay. Test articles were formulated at a 2× starting concentration in cell culture medium, and samples were serial diluted (1:3) under sterile conditions and added onto the cells in duplicates. After incubation at 37° C. in a CO2 incubator for 48 hours, the cell supernatant was collected for measuring HMGB1 and the adherent cells were collected for calreticulin expression on the cell surface.
HMGB1 released in the supernatant was assessed via sandwich ELISA using mouse anti-human HMGB1 clone 2F6 (Sigma-Aldrich) as the capture, polyclonal rabbit anti-human HMGB1 (Abcam) as secondary, and polyclonal goat anti-rabbit IgG HRP as the detection antibody. The HMGB1 concentrations in the cell culture medium were calculated based a standard curve built on commercially available recombinant human HMGB1 (R&D Systems).

The subject of experiment [3] is NCI-H292 cells. As to the kind of experiment: Immunogenic cell death: cell surface calreticulin (CALR) on live cells (flow cytometry), 48 hours. Particulars: NCI-H292 cells. As for the experimental part: as §3
NCI-H292 cells were detached using Accutase (Innovative Cell Technologies) and viability was accessed using a 1:500 dilution of Zombie NIR viability dye. […] Surface calreticulin measures on the live cells were gathered using an Attune NXT Flow Cytometer (ThermoFisher Scientific) to obtain median fluorescence intensity values. All data were fitted with non-linear regression analysis, using log(agonist) vs. response, variable slope, 4 parameter fit equation using GraphPad Prism.

The subject of experiment [4] is NCI-H292 cells. As to the kind of experiment: IP-10 and IL-6 release from TROP2 positive NCI-H292 cells, 120 hours (MSD). Particulars: for pEC50: Homo sapiens. The procedure:
The cell supernatant was collected and IP-10 and IL-6 released in the cell culture medium was measured using Streptavidin single spot 96 well plates, compatible human antibody pairs, and calibrating solutions commercially available from MesoScale Discovery. Raw data generated by the Meso Scale Discovery (MSD®) SQ120 plate reader was imported into MSD Discovery Workbench software. Unknown sample values were interpolated from standard curves by the software and imported into Graphpad Prism. Each cytokine level was fitted with non-linear regression analysis, using log(agonist) vs. response, variable slope, 4-parameter fit equation in GraphPad Prism.

Setting [5] is: NCI-H292 cells, read-out: IL-6 induction EC50.
The mark [6] stands for this setting: NCI-H292 cells, read-out: IP-10 induction EC50.
Setting [7] is: TROP2 positive NCI-H292 cells, read-out: IL-6 Release EC50.
Where [8] appears, read: TROP2 positive NCI-H292 cells, read-out: IP-10 Release EC50.

One may read the pEC50 as −log10 of the EC50, conventionally taken in molar units.

pEC50: −log10 of the molar value. Like-named read-outs stand apart in the source and are kept apart here. Bounds are passed on as bounds.

For `CCn1nc(C)cc1C(=O)Nc1nc2cc(C(N)=O)ccc2n1C/C=C/Cn1c(NC(=O)c2cc(C)nn2CC)nc2cc(C(N)=O)cc(OCCCN3CC4(CNCCO4)C3)c21` [Compound S-1], the “cell killing (in words)” value in experiment [1] is on record as “did not result in significant cell killing”. Further, the Span cell killing in the experiment on NCI-H460 (Trop2-), in the experiment with NCI-H441 (Trop2+), in the experiment with NCI-H1703 (Trop2-) and with NCI-H292 (Trop2+) was below 15% each time. Further, the pEC50 in the experiment with NCI-H460 (Trop2-), in the experiment with NCI-H441 (Trop2+), in the experiment on NCI-H1703 (Trop2-), in the experiment with NCI-H292 (Trop2+), in the experiment on NCI-H292 cells [4] (setting [5]) and in the experiment with NCI-H292 cells [4] (setting [6]) was below 7.00 throughout. The pEC50 with NCI-H292 cells [4] (setting [7]) and in the experiment on NCI-H292 cells [4] (setting [8]) was below 7.00 throughout. In addition, the “release of HMGB1 into the cell culture supernatant” value with NCI-H292 cells [2] stood at 30 ng/mL. Also, the “HMGB-1 Release Span” value with NCI-H292 cells [2] was 17 ng/mL. Further, the “induction of CALR on live cells compared to untreated cells” value with NCI-H292 cells [3] is recorded as “no induction of CALR”. The “IL-6 Release Span” value with NCI-H292 cells [4] (TROP2 positive NCI-H292 cells) is given as above 10000 pg/mL. For the same compound, the “IP-10 Release Span” value in the experiment with NCI-H292 cells [4] (TROP2 positive NCI-H292 cells) is reported as above 4000 pg/mL.
`CCn1nc(C)cc1C(=O)Nc1nc2cc(C(N)=O)cc(OC)c2n1C/C=C/Cn1c(NC(=O)c2cc(C)nn2CC)nc2cc(C(N)=O)cc(OCCCN3CCC(c4nnc5n4CCNC5)CC3)c21` [Compound S-3, 1-[(E)-4-[5-Carbamoyl-2-[(2-ethyl-5-methyl-pyrazole-3-carbonyl)amino]-7-[3-[4-(5,6,7,8-tetrahydro-[1,2,4]triazolo[4,3-a]pyrazin-3-yl)-1-piperidyl]propoxy]benzimidazol-1-yl]but-2-enyl]-2-[(2-ethyl-5-methyl-pyrazole-3-carbonyl)amino]-7-methoxy-benzimidazole-5-carboxamide]: the “cell killing (in words)” value in experiment [1] is “did not result in significant cell killing”. The Span cell killing in the experiment on NCI-H460 (Trop2-), in the experiment on NCI-H441 (Trop2+), in the experiment on NCI-H1703 (Trop2-) and in the experiment with NCI-H292 (Trop2+) was below 15% in each case. Also, the pEC50 in the experiment on NCI-H460 (Trop2-), in the experiment with NCI-H441 (Trop2+), in the experiment on NCI-H1703 (Trop2-), with NCI-H292 (Trop2+), in the experiment with NCI-H292 cells [4] (setting [5]) and in the experiment on NCI-H292 cells [4] (setting [6]) was below 7.00 throughout. In addition, the pEC50 with NCI-H292 cells [4] (setting [7]) and in the experiment with NCI-H292 cells [4] (setting [8]) was below 7.00 in each case. Moreover, the “release of HMGB1 into the cell culture supernatant” value with NCI-H292 cells [2] was found to be 30 ng/mL. Moreover, the “HMGB-1 Release Span” value in the experiment with NCI-H292 cells [2] is 11 ng/mL. Besides, in the experiment on NCI-H292 cells [3], the “induction of CALR on live cells compared to untreated cells” value is “no induction of CALR”. Also, in the experiment with NCI-H292 cells [4] (TROP2 positive NCI-H292 cells), the “IL-6 Release Span” value is recorded as above 8000 pg/mL. Also, in the experiment on NCI-H292 cells [4] (TROP2 positive NCI-H292 cells), the “IP-10 Release Span” value is above 4000 pg/mL.
